Results: patent publication US20100267002A1, “PEPTIDE HAVING LIFE-LENGTHENING EFFECT ON CELLS” (National Institute of Advanced Industrial Science and …, priority 2009, published 2010)

Columns and labels:
HepG2 cells [1] = assay: HepG2 cell preservation at 4° C., survival ratio by Cellstain (Calcein-AM/PI) fluorescent double staining; type: cell-based, human; conditions: for cell survival ratio (fluorescent dye observation): HepG2, 4° C., 48 hours, peptide 10 mg/ml in Euro-Collins solution
Experimental: (§1) Nfe6-, Nfe8-, and Nfe11-based confirmation of cell protecting effects and cell preserving effects was performed with the use of the HepG2 cell line (FIG. 3) derived from the human liver (purchased from Riken Cell Bank). The experiment was carried out using the HepG2 cells that had been cultured for about a week in Dulbecco's Modified Eagle's Medium (DMEM) (Sigma-Aldrich, Japan) (a culture solution) containing 10% bovine serum (FBS, Gibco) and 50 μg/ml penicillin/streptomycin (Invitrogen). FBS was inactivated by heating at 56° C. for 30 minutes and then used. Culture was conducted in a CO2 incubator (SANYO) using a flask in an atmosphere of 5% CO2 at 37° C. The HepG2 cells that had reached subconfluent conditions (i.e., conditions immediately before the container becomes filled with cells) were treated with a trypsin solution (Wako Pure Chemical Industries, Ltd.) to prepare a cell suspension. The cell suspension was sowed on a cell culture microplate, culture was conducted in a CO2 incubator (5% CO2, 37° C.) overnight, and the resultant was then used for the preservation experiment. In all the experiments described below, cells were preserved at 4° C.
The cells that had been subjected to preservation treatment for 48 hours were stained with Cellstain (Cell Double Staining Kit, available from Dojindo Laboratories), and the cells were observed under a fluorescent microscope (Olympus IX70) to evaluate the survival ratio. Cellstain (Cell Double Staining Kit) involves the use of Calcein-AM fluorescent dye, which stains viable cells, in combination with PI (Propidium iodide) fluorescent dye, which stains dead cells. […] Thereafter, the cell culture plate was mounted on a fluorescent microscope, and “viable cells stained yellow green” were observed using a fluorescence cube for GFP (excitation filter: BP460-480; dichroic mirror: DM450; absorption filter: BA460-510). Also, “dead cells stained red” were observed using a fluorescence cube for YFP (excitation filter: BP490-500; dichroic mirror: DM505; absorption filter: BA515-560).

HepG2 cells [2] = assay: HepG2 cell preservation at 4° C., survival ratio by amount of LDH released; type: cell-based, human; conditions: HepG2, 4° C., peptide 10 mg/ml in EC solution, 11 repetitions; for survival ratio based on the assay of the amount of LDH: 24 hours
Experimental: as §1
Further, the cell survival ratio after 24-hour-preservation was estimated using the LDH Cytotoxicity Detection Kit (Takara Bio Inc.). The LDH amount was measured by sowing the cell suspension prepared by the method described in (5) on a 4-well cell culture plate (Nalge Nunc International K.K.) and subjecting the resultants to the preservation experiment at 4° C. for 24 hours and for 48 hours. […] The amount of red formazan generated was evaluated by assaying the absorbance at 490 nm using a microplate reader (Sunrise Remote, Wako Pure Chemical Industries, Ltd.). In this experiment, the LDH amount when the HepG2 cells had been preserved for 24 hours using a cell preservative solution containing 1% Triton X (the A2 solution) was designated as 100% and the percentage of LDH in the experiment was determined based thereon.

HepG2 cells [3] = assay: HepG2 cell preservation at 4° C., survival ratio by amount of ATP (CellTiter-Glo); type: cell-based, human; conditions: HepG2, 4° C., 48 hours, peptide 10 mg/ml in EC solution, 11 repetitions
Experimental: Nfe6-, Nfe8-, and Nfe11-based confirmation of cell protecting effects and cell preserving effects was performed with the use of the HepG2 cell line (FIG. 3) derived from the human liver (purchased from Riken Cell Bank). The experiment was carried out using the HepG2 cells that had been cultured for about a week in Dulbecco's Modified Eagle's Medium (DMEM) (Sigma-Aldrich, Japan) (a culture solution) containing 10% bovine serum (FBS, Gibco) and 50 μg/ml penicillin/streptomycin (Invitrogen). FBS was inactivated by heating at 56° C. for 30 minutes and then used. Culture was conducted in a CO2 incubator (SANYO) using a flask in an atmosphere of 5% CO2 at 37° C. […]
Since the metabolism is reduced at low temperatures, substantially no ATP is synthesized in cells. […] The ATP concentration was measured using a 96-well cell culture plate for emission measurement (Nalge Nunc International K.K.) and the HepG2 cells prepared by the method described in (5). […] ATP concentration after preservation was evaluated by adding a luminescent reagent (CellTiter-Glo, Promega) to wells and assaying the luminescent intensity using a microplate reader (Wallac 1420 ARVOsx, PerkinElmer Life Sciences, Japan). […]

HepG2 cells [4] = assay: HepG2 cell preservation at 4° C., survival ratio by WST-8 (Cell Counting Kit-8); type: cell-based, human; conditions: HepG2, 4° C., 48 hours, peptide 10 mg/ml in EC solution, 11 repetitions
Experimental: as §1, with “The cell suspension was sowed on a cell culture microplate, culture was conducted in a CO2 incubator (5% CO2, 37° C.) overnight, and the resultant was then used for the preservation experiment. In all the experiments described below, cells were preserved at 4° C.” left out
[…] The amount of water-soluble formazan in the medium was evaluated by measuring the absorbance at 450 nm using a microplate reader (Sunrise Remote, Wako Pure Chemical Industries, Ltd.), and the percentage of viable cells after the cell preservation experiment was determined using the number of cells determined by adding WST-8 to the HepG2 cells before the preservation experiment as a control (100%).

[5] = test system: fertilized eggs of Japanese Black Cattle; assay: preservation of fertilized eggs of Japanese Black Cattle at 4° C., survival by microscopic observation; type: cell-based
Experimental: The fertilized eggs of Japanese Black Cattle were subjected to the preservation experiment at 4° C. for 72 to 96 hours (3 to 4 days) using Nfe11, and the survival ratio of the fertilized eggs after preservation was assayed. At the outset, the follicle-stimulating hormones (FSH) were used to subject superovulated […] cattle to artificial insemination. Seven days thereafter, 3 to 6 fertilized eggs at the initial blastocyst stage were removed from the salpinx of the […] cattle and introduced into a straw having a diameter of 400 micrometers. In this case, Nfe11 powder samples were dissolved in a phosphate buffer (PBS) to a concentration of 5 mg/ml or 10 mg/ml, and the recovered fertilized eggs were soaked in the resulting solutions. Both ends of the straw were sealed, the resultant was allowed to stand in a refrigerator at 4° C., and the preservation experiment was carried out for 72 hours to 96 hours. Survival of the fertilized eggs after the preservation experiment was evaluated using a microscopic observation. As a result, the data as shown below were obtained.

Substance	cell survival ratio (fluorescent dye observation) (HepG2 cells [1])	survival ratio based on the assay of the amount of LDH (HepG2 cells [2])	cell survival ratio, amount of ATP (HepG2 cells [3])	survival ratio of HepG2 cells, amount of WST-8 (HepG2 cells [4])	cell protection effects (HepG2 cells [1]; HepG2 cell lines, 10 mg/ml in Euro-Collins solution)	cell survival ratio, amount of LDH released (100 minus LDH value) (HepG2 cells [2]; 48 hours)	survival ratio of cattle fertilized eggs ([5]; 5 mg/ml in PBS, 72 hours)	survival ratio of cattle fertilized eggs ([5]; 5 mg/ml in PBS, 96 hours)	survival ratio of cattle fertilized eggs ([5]; 10 mg/ml in PBS, 96 hours)
Nfe6: recombinant Nfe peptide from Zoarces elongatus Kner, SEQ ID NO: 2, no thermal hysteresis activity [reference compound]	about 40%	~56%							
Nfe11: recombinant 66-residue peptide from Zoarces elongatus Kner, amino acid sequence SEQ ID NO: 6, no thermal hysteresis activity	about 75%	~34%	60%	~48%	sufficient cell protection effects	~62%	67%	50%	50%
